In US20190083508A1, “USE OF OX1R ANTAGONISTS FOR THE TREATMENT OF INFLAMMATORY BOWEL DISEASES” (Inserm (Institut National De La Sante et de la Recherche …, priority 2014, published 2019):
No end group written: not given here.

What was measured:
DSS-treated mice = test: Length of colon from DSS-treated mice mimicking acute ulcerative colitis; type: in vivo; details: 5% DSS in drinking water; daily ip 20 μg; one week
Description: FIG. 8: Effect of daily ip inoculation of OxA, Suvorexant and Almorexant on the length of colon from DSS- (dextran sulfate sodium) treated mice mimicking the acute ulcerative colitis disease. A. Mice were treated with 5% (w/v) DSS in drinking water and daily injected with 20 μg of OxA (OXA IP), 20 μg of Suvorexant (Suvo) or 20 μg of Almorexant (Almo). Control (wt) or treated DSS mice (DSS) were daily injected with 100 μl PBS. After one week of treatment, mice were sacrificed and the length of colon which represented a good marker of inflammation state, was measured. […] B. quantification of colon length from 5 different DSS-treated mice injected with OxA (DSS+OXA IP), Almorexant (DSS+Almo), Suvorexant (DSS+Suvo) or not injected (WT and DSS). NS, no significant; *, p<0.05; ** p<0.001
The inventors also investigated the effect of daily intraperitoneal inoculation of OxA, Suvorexant and Almorexant on the length of colon from DSS- (dextran sulfate sodium) treated mice mimicking the acute ulcerative colitis disease.

[1] = system: colon adenocarcinoma HT-29 cells; test: Apoptosis assay (annexin V-PE binding), HT-29 cells; type: cell-based; details: 48 h, 1 μM orexin-A or various concentrations of SB408124
Description: FIG. 7: Effect of orexin-A and SB408124 antagonist on apoptosis in OX1R expressing colon adenocarcinoma cells, HT-29. HT-29 cells were challenged with 1 μM orexin-A or various concentration of SB408124 for 48 h. Apoptosis was measured by determination of annexin V-PE binding, and results are expressed as the percentage of apoptotic cells. Results are means±SE of three experiments. ***P<0.001.
(§1) HEK-OX1R cells or colon adenocarcinoma HT-29 cells were seeded, grown and maintained at 37° C. in a humidified 5% CO2/air incubator. After 24 hr culture, cells were treated with or without Orexin-A peptide or SB408124 antagonist, previously dissolved in DMSO, to be tested at the concentration indicated in the figure legends. After 48 hr of treatment, adherent cells were harvested by TriplE (Life Technologies, Saint Aubin, France) and manually counted. Apoptosis was determined using the Guava PCA system and the Guava nexin kit.

DSS-induced colitis mice [2] = test: Cytokine assays in colon extracts of DSS-induced colitis mice; type: in vivo; details: daily ip 0.22 μmoles/kg, 7 days
Description: FIG. 3: OXA effects on cytokines secretion in DSS-induced colitis mice. Right, Colons of DSS untreated mice (white), DSS treated mice (gray) and DSS treated mice associated to OxA treatment (black) were resected after animal sacrifice. Then, protein extraction was performed by tissue disruption. Cytokines were determined using Cytokine CBA kits (see Material and Methods). Left, after colon resection, RNA were extracted from colonic tissue and qPCR was performed using specific oligonucleotides for IL8 homolog and IL1B.
These observations are confirmed by histologic aspect of colon epithelium (histologic scoring by a GI pathologist). Thus, OxA has probably an anti-inflammatory effect on DSS-induced colitis. To confirm this hypothesis, we have investigated the anti-inflammatory effect of OxA treatment on cytokines secretion in colon extracts from DSS-treated mice. […] In contrast, OxA has no effect on INFγ, IL10, and IL12 cytokine secretion in colon extracts (FIG. 3).
Balb/c mice were orally treated by 5% (w/v) of Dextran Sulfate Sodium (DSS) for 7 days. Orexin treatment was carried out in DSS treated mice by daily intraperitoneal injection of OxA (0.22 μmoles/kg) for 7 days. Weight and colitis symptoms (diarrhea, blood in the stool . . . ) for each mouse was daily measured. After 7 days of treatment, animals were sacrificed and colons were resected to further analyses (size, histological aspect, cytokine assays). […] mice (IL10^−/− and Nox1^−/−) which develop a spontaneous colitis at 6/7 weeks of age were treated or not with OxA (0.22 μmoles/kg, 2 intraperitoneal injection/week for 21 days). After animal sacrifice colons were resected and histologic analysis was performed.
Mice were sacrificed and colons were resected. Proteins were extracted from colon by tissue disruption in PBS using Tissue Lyser (Qiagen, Courtaboeuf, France). Various cytokines (see FIG. 3) were determined using Cytokine CBA kits (BD Sciences, Le Pont de Claix, France).

[3] = system: colon adenocarcinoma HT-29 cells; test: Cell growth determination, HT-29 cells; type: cell-based; details: 48 hr, 0.1 μM OxA or increasing concentrations of SB408124
Description: (§2) FIG. 6: Determination of the inhibition of cellular growth of HEK-OX1R cells and colon adenocarcinoma cells (HT-29) induced by 0.1 μM of OxA or various concentrations of SB408124 antagonist. HEK-OX1R cells (black column) and HT-29 cells (white column) were incubated with 0.1 μM of OxA and indicated increasing concentration of SB408124, and cells were counted after 48 hr incubation. Results are expressed as the percentage of total viable cells.
as §1

HEK-OX1R cells = test: Cell growth determination, HEK-OX1R cells; type: cell-based; details: 48 hr, 0.1 μM OxA or increasing concentrations of SB408124
Description: as §2, §1

EXCY2 mice = test: Spontaneous UC-like colitis in EXCY2 mice (IL10-/-; Nox1-/-), colon histology; type: in vivo; details: 10 week-old EXCY2 mice, 0.22 μmoles/kg, 2 IP/week during 3 weeks
Description: FIG. 4: Histological aspect of colon mucosa in OxA treated EXCY2 mice (right) and non-treated EXCY2 mice (left). EXCY2 mice genetically invalidated for IL10 and Nox1 genes (IL10^−/− and Nox1^−/−) which develop spontaneous UC-like disease, were treated with OxA (0.22 μmoles/kg, 2 intraperitoneal injection/week for 21 days) (right) or untreated (left). After animal sacrifice colons were resected and histologic analysis was performed.
DSS mouse model has been extensively used to decipher the mucosal inflammation in IBD, UC pathogenesis, and preclinical studies. However, mice show differential susceptibilities and responsiveness to DSS-induced colitis depending on their genetic background, gender. DSS model is a faithful model of inflammation but departs from Ulcerative Colitis in part for lack of the inflammation gradient from the rectum to the proximal colon usually observed in UC, any deregulation of ER stress in goblet cells known to be an early etiological factor of UC, and no digestive or extra-digestive complications of UC such as cholangitis and colorectal cancer, respectively. The use of genetically modified mice model represents a good alternative to chemically-induced colitis mice model. […]
(§3) Balb/c mice were orally treated by 5% (w/v) of Dextran Sulfate Sodium (DSS) for 7 days. […] Weight and colitis symptoms (diarrhea, blood in the stool . . . ) for each mouse was daily measured. […]

OX1R = biological target: T1, OX1R (Homo sapiens, UniProt O43613); test: Ca2+ mobilization assay in HEK-OX1R cells (FluoForte); type: cell-based
T1 construct: HEK cells expressing recombinant native OX1R (HEK-OX1R); expressed in transfected cells; host or cells: HEK cells (HEK-OX1R)
T1 sequence (O43613 1-425): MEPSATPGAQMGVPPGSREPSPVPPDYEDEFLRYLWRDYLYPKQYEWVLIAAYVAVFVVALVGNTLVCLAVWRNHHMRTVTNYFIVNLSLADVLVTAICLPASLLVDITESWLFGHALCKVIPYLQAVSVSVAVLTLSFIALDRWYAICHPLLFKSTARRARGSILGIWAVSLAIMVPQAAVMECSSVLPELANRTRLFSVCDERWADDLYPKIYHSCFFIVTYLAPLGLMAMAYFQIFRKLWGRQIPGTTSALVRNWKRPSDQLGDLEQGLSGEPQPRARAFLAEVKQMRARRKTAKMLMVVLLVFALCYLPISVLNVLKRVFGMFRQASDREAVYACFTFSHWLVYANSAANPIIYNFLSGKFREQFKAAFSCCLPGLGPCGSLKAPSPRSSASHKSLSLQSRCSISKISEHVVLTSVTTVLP
Description: FIG. 5: Effect of orexin-A and SB408124 antagonist on Ca2+ mobilization in HEK-OX1R cells. Top, HEK-OX1R cells were incubated with fluorescence probe (FluoForte) for 45 min. at 37° C. according to FluoForte calcium assay kit (Enzo Life Sciences). 1 μM of OxA was added to cells and fluorescence emission was measured on TECAN Infinite 200 fluorospectrophotometer. Bottom, HEK-OX1R cells were incubated with fluorescence probe (FluoForte) for 45 min. at 37° C. and then incubated with 1 μM of SB408124 for 1 h at 37° C. After pre-incubation, 1 μM of OxA was added to cells and fluorescence emission was measured.
HEK cells expressing recombinant native OX1R (HEK-OX1R) cells were seeded in 96-wells plate, grown and maintained at 37° C. in a humidified 5% CO2/air incubator. 80,000 cells/well were incubated with FluoForte probe according to FluoForte calcium assay kit (ENZO life Sciences, Farmingdale, N.Y., USA) for 45 min. at 37° C. and then incubated with or without 1 μM of […] antagonist for 1 h at 37° C. After pre-incubation, 1 μM of OxA was added and fluorescence was determined using TECAN Infinite 200 fluorospectrophotometer.

DSS-induced colitis mice [4] = test: DSS-induced colitis mice, Disease Activity Index; type: in vivo, Balb/c mice; details: 5% DSS orally 7 days; daily ip 0.22 μmoles/kg
Excerpt: FIG. 2: OXA ameliorates the DAI (weight and colitis score) of DSS-induced colitis mice. Mice were orally treated with 5% DSS for 7 days in the presence or in the absence of daily intraperitoneal injection of OxA (0.22 μmoles/kg). Left, determination of gain or loss of weight in the absence of DSS treatment (Control, ▴), in the presence of DSS treatment (DSS, ▪) and in the presence of DSS associated to OxA treatment (DSS+OxA, ●). Right, evaluation of Disease Activity Index (DAI) scored by measuring weight, length of colon, diarrhea and blood presence in the stool in DSS untreated control mice (Control, ▴), in DSS treated mice (DSS, ▪) and in DSS treated mice associated to OxA treatment (DSS+OxA, ●).
Based on these observations, we have investigated the effect of Orexin A (OxA) on acute inflammation in mice treated with Dextran Sulfate Sodium (DSS). OxA was preferentially chosen in these experiments since the presence of two disulphide bridges confers it more stability. DSS induces acute colitis characterized by weight loss, bloody diarrhea, intestinal ulcerations and infiltrations with granulocytes.
as §3

For `Cc1ccc(-n2nccn2)c(C(=O)N2CCN(c3nc4cc(Cl)ccc4o3)CC[C@H]2C)c1` [Suvorexant], the “Protection from DSS induced acute ulcerative colitis (colon length)” value (“Protection” below) (DSS-treated mice) was “protect mice from DSS induced acute ulcerative colitis disease”.

With “OxA: Orexin A peptide with two disulphide bridges, agonist of OX1R (QPLPDCCRQKTCSCRLYELLHGAGNHAAGILTL; disulfide (positions not given here); ends not checked; also: two disulphide bridges, places not given here; UniProt O43612 34-66, looked up)” the “Apoptosis (annexin V-PE binding)” value [1] was “induced an apoptotic effect”, the “Protection” value (DSS-treated mice) was “protect mice from DSS induced acute ulcerative colitis disease” and the “IL6 secretion in colon extracts” value (DSS-induced colitis mice [2]) was “reduces the secretion”. For the same compound, the “IL10 secretion in colon extracts” value (DSS-induced colitis mice [2]) was “has no effect”, the “IL12 secretion in colon extracts” value (DSS-induced colitis mice [2]) was “has no effect” and the “INFγ secretion in colon extracts” value (DSS-induced colitis mice [2]) was “has no effect”. For the same compound, the “TNFα secretion in colon extracts” value (DSS-induced colitis mice [2]) was “reduces the secretion”, the “IL1B in colon extracts” value (DSS-induced colitis mice [2]; qPCR per FIG. 3) was “reduces the secretion” and the “IL8 homolog in colon extracts” value (DSS-induced colitis mice [2]; qPCR per FIG. 3) was “reduces the secretion”. The “Inhibition of cellular growth” value [3] was “induced a strong inhibition of cellular growth”, the “Inhibition of cellular growth” value (HEK-OX1R cells) was “induced a strong inhibition of cellular growth” and the “Effect on severe spontaneous colitis” value (EXCY2 mice) was “alleviated severe colitis”. The “Histological aspect of colonic mucosa (crypts aspect, crypt size, goblet cells, immune cells infiltration)” value (EXCY2 mice; vs vehicle treated) was “exhibited a normal colonic mucosa”, the “Ca2+ mobilization (agonist effect)” value (OX1R; 1 μM) was “induced a large and transient Ca^2+ mobilization” and the “Disease Activity Index (DAI) scored by weight, length of colon, diarrhea and blood in the stool” value (DSS-induced colitis mice [4]) was “ameliorates”.

For `Cc1cc(NC(=O)Nc2ccc(N(C)C)cc2)c2cc(F)cc(F)c2n1` [SB408124], the “Apoptosis (annexin V-PE binding)” value [1] was “able to induce in a dose-dependent manner cell apoptosis”, the “Inhibition of cellular growth” value [3] was “induced also a strong inhibition in a dose-dependent manner of cellular growth” and the “Inhibition of cellular growth” value (HEK-OX1R cells) was “induced also a strong inhibition in a dose-dependent manner of cellular growth”. For the same compound, the “Effect on OxA-induced Ca2+ mobilization (antagonist effect)” value (OX1R; 1 μM preincubation 1 h, then 1 μM OxA) was “totally abolished the induced-Ca^2+ mobilization”.

`CNC(=O)[C@@H](c1ccccc1)N1CCc2cc(OC)c(OC)cc2[C@@H]1CCc1ccc(C(F)(F)F)cc1` [Almorexant] was tested, and the “Protection” value (DSS-treated mice) was “protect mice from DSS induced acute ulcerative colitis disease”.
